Patent publication US20120128630A1, “1-(6 MEMBERS AZO-HETEROCYCLIC)-PYRROLIN-2-ONE COMPOUNDS AS INHIBITORS OF HEPATITIS C NS5B POLYMERASE, THE PHARAMACEUTICAL COMPOSITION THEREOF AND THEIR THERAPEUTIC USE” (priority 2009, published 2012)
“And” between values parts separate entries of the source, which are not always exact repeats. Identical values can stand only once.

How the values were obtained:
HCV NS5B genotype 1b = target: T1, HCV NS5B genotype 1b (Hepatitis C virus genotype 1b, UniProt Q9WMX2); assay: 3D-SCREEN assay (NS5B 3D-Screen platform, luciferase reporter gene); type: cell-based; details: EC50_3DS_NS5B
T1 construct: The protein was expressed with a 21 amino acid C-terminal deletion to remove transmembrane domain; expressed in transfected cells; host or cells: Huh-7
Summary of the method: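 Huh-7 cells transiently co-transfected with NS5BΔ21/Gal4-DBD, 3D-Sensor peptide I4/VP16 and firefly luciferase reporter. Compounds added 2 h after seeding, 1% DMSO final, 24 h incubation. Luciferase luminescence read; % inhibition relative to no-compound signal.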

HCV replicon Luc Neo ET = assay: Luc Neo ET Replicon assay; type: cell-based, Hepatitis C virus; details: Table 3, titled RdRp enzyme assay results, EC50_Replicon LucneoET, 72 hours with compound, luciferase
Description: Human Hepatoma Huh-7 cell line was maintained in DMEM/HAMF-12 supplemented with 10% SVF, 4 mM glutamine, […] Na pyruvate, 1% penistreptomycine. HCV replicon containing Huh-7 cell lines Huh-9.13 and Luc Neo ET (Reblikon) were maintained in DMEM supplemented with 10% SVF, 2 mM glutamine, and 1×NEAA, 100 U/ml penicillin, and 100 μg/ml streptomycine. Replicon cells were maintained in medium supplemented with 1 mg/ml G418 for replicon Huh-9.13 and 0.5 mg/ml for Luc Neo et replicon unless indicated otherwise. Huh-7 and HCV replicon cell lines were maintained at 37° C. and 5% CO2 in a humidified atmosphere. Cells were dissociated at sub confluence with trypsin EDTA 1×.
Replicon Luc Neo ET is a bicistronic expression constructs (Lohmann et al, 1999, Science 285, 110-113). In brief, the structural genes of the HCV genome were replaced by heterologous sequences; the gene encoding the neomycin phosphotransferase (NPT) and the internal ribosome entry site (IRES) of the encephalomyocarditis virus (EMCV). The bicistronic construct is therefore composed of the following elements: HCV-IRES nucleotides 1-389, the NPT gene, the EMCV-IRES directing translation of downstream HCV sequences from NS2 or NS3 up to the authentic 3′ end of the genome. HCV Polyprotein harbours the cell culture adaptive mutations E1202G, T1280I, K1846T. G418-resistance is only possible with cells containing high amounts of replicon.
Cells were dissociated the day before addition of compounds and seeded in 96 well-plates at a final concentration of 77 777.77 cells.ml^−1.well^−2 in 90 μl final volume of culture medium per well and were maintained at 37° C. and 5% CO2 in a humidified atmosphere for 24 hours. 10 μl of compounds to be tested were added 24 hours after seeding. Final concentration of DMSO was 1%. Cells were incubated in the presence of compounds for 72 hours after which expression of firefly luciferase reporter gene was quantified. Briefly, culture medium was removed and cells were lysed by addition of 100 μl of lysis buffer containing 125 mM Tris Phosphate ph 7.8, 10 mM EDTA, 5 mM DTT, 50% glycerol and 5% Triton. Plates were vortexed 10 min at 1300 rpm. Cell lysat was transferred in OpaqueWhite Assay 96 well Flat Bottom plates. 100 μl of luciferin solution 1× were added to each well. Luciferin solution contained 40 mM Tris Phosphate ph 7.8, 0.2 mM EDTA, 67 mM DTT, 2.14 mM MgCl2, 5.4 mM MgSO4, 4.7×10^−4 M luciferin, 5.3×10^−4 M ATP and 2.7×10^−4 M Acetyl co enzyme A. Luminescence was immediately measured with Berthold Microlumat Plus LB 96V luminometer with an integration of 0.5 sec Inhibition was calculated using the formula:
% inhibition=1−[(RLUsample−RLUbackground)/(RLUsignal−RLUbackground)]

[1] = Table 1, 3D-SCREEN assay results, Huh-7 cells, 24 hours with compound, firefly luciferase reporter
[2] = Table 2, titled Replicon assay results

Row | SMILES | EC50 (HCV NS5B genotype 1b; [1]) [nM] | EC50 (HCV replicon Luc Neo ET) [nM] | melting point | EC50 (HCV replicon Luc Neo ET; Hepatitis C virus, 72 h) [nM] | EC50 (HCV NS5B genotype 1b; [2]) [nM]
1 | Cc1ccc(N2C(=O)C(O)=C(C(=O)c3ccc(C(C)C)cc3)C2c2ccc(C(C)C)cc2)cn1 (stereo not drawn) [Example 48, 3-hydroxy-4-(4-isopropyl-benzoyl)-5-(4-isopropyl-phenyl)-1-(6-methyl-pyridin-3-yl)-1,5-dihydro-pyrrol-2-one] | 700 | 1000 | 252 to 254 °C | – | –
2 | CC(=O)OC1=C(C(=O)c2ccc(C(C)C)cc2)C(c2ccc(C(C)C)cc2)N(c2ccc(C)nn2)C1=O (stereo not drawn) [Example 56, Acetic acid 4-(4-isopropyl-benzoyl)-5-(4-isopropyl-phenyl)-1-(6-methyl-pyridazin-3-yl)-2-oxo-2,5-hydro-1H-pyrrol-3-yl ester] | 500 | – | 215 °C | 600 | –
3 | Cc1ccc(N2C(=O)C(O)=C(C(=O)c3ccc(C(C)C)cc3)C2c2ccc(OC(F)(F)F)cc2)nn1 (stereo not drawn) [Example 61, 3-hydroxy-4-(4-isopropyl-benzoyl)-1-(6-methyl-pyridazin-3-yl)-5-(4-trifluoromethoxy-phenyl)-1,5-dihydro-pyrrol-2-one] | 70 | – | 258 to 260 °C and 262 to 265 °C | 100 | –
4 | COc1ccc(C2C(C(=O)c3ccc(C(C)C)cc3)=C(O)C(=O)N2c2ccc(C)nn2)cc1 (stereo not drawn) [Example 62, 3-hydroxy-4-(4-isopropyl-benzoyl)-5-(4-methoxy-phenyl)-1-(6-methyl-pyridazin-3-yl)-1,5-dihydro-pyrrol-2-one] | 800 | – | 263 to 267 °C | 900 | –
5 | Cc1ccc(N2C(=O)C([O-])=C(C(=O)c3ccc(C(C)C)cc3)C2c2ccc(C(C)C)cc2)cn1.[Na+] (stereo not drawn) [Example 67, Sodium; 4-(4-isopropyl-benzoyl)-5-(4-isopropyl-phenyl)-1-(6-methyl-pyridin-3-yl)-2-oxo-2,5-dihydro-1H-pyrrol-3-olate] | 3000 | < 10000 | 215 °C | – | –
6 | CC(=O)OC1=C(C(=O)c2ccc(C)cc2)C(c2ccc(OC(F)(F)F)cc2)N(c2ccc(C)nn2)C1=O (stereo not drawn) [Example 76, Acetic acid 4-(4-methyl-benzoyl)-1-(6-methyl-pyridazin-3-yl)-2-oxo-5-(4-trifluoromethoxy-phenyl)-2,5-dihydro-1H-pyrrol-3-yl ester] | 600 | – | 165 to 166.5 °C | < 10000 | –
7 | Cc1ccc(N2C(=O)C(O)=C(C(=O)c3ccc(C(C)C)cc3)C2c2ccc(OC(F)(F)F)cc2)cn1 (stereo not drawn) [Example 77, 3-hydroxy-4-(4-isopropyl-benzoyl)-1-(6-methyl-pyridin-3-yl)-5-(4-trifluoromethoxy-phenyl)-1,5-dihydro-pyrrol-2-one] | – | – | 214 to 218 °C | < 10000 | < 1000
8 | Cc1ccc(N2C(=O)C(O)=C(C(=O)c3ccc(-c4ccccc4)cc3)C2c2ccc(OC(F)(F)F)cc2)nn1 (stereo not drawn) [Example 79, 4-(biphenyl-4-carbonyl)-3-hydroxy-1-(6-methyl-pyridazin-3-yl)-5-(4-trifluoromethoxy-phenyl)-1,5-dihydro-pyrrol-2-one] | 500 | – | 226 to 232 °C | < 10000 | –
9 | Cc1ccc(N2C(=O)C(O)=C(C(=O)c3ccc(N4CCOCC4)cc3)C2c2ccc(OC(F)(F)F)cc2)nn1 (stereo not drawn) [Example 80, 3-hydroxy-1-(6-methyl-pyridazin-3-yl)-4-(4-morpholin-4-yl-benzoyl)-5-(4-trifluoromethoxy-phenyl)-1,5-dihydro-pyrrol-2-one] | 2000 | – | 234 °C | < 10000 | –
10 | Cc1ccc(N2C(=O)C(O)=C(C(=O)c3ccc(C(C)C)cc3)C2c2ccc(OC(F)F)cc2)nn1 (stereo not drawn) [Example 88, 5-(4-difluoromethoxy-phenyl)-3-hydroxy-4-(4-isopropyl-benzoyl)-1-(6-methyl-pyridazin-3-yl)-1,5-dihydro-pyrrol-2-one] | – | – | 263 to 265 °C | < 1000 | < 1000
11 | Cc1ccc(N2C(=O)C(O)=C(C(=O)c3ccc(C(C)C)cc3)C2c2ccc(OC(C)C)cc2)nn1 (stereo not drawn) [Example 89, 3-hydroxy-5-(4-isopropoxy-phenyl)-4-(4-isopropyl-benzoyl)-1-(6-methyl-pyridazin-3-yl)-1,5-dihydro-pyrrol-2-one] | – | – | 280 to 281 °C | < 10000 | < 10000
12 | Cc1ccc(N2C(=O)C(O)=C(C(=O)c3ccc(C(C)C)cc3)C2c2ccc(OC(C)(C)C)cc2)nn1 (stereo not drawn) [Example 90, 5-(4-tert-butoxyphenyl)-3-hydroxy-4-(4-isopropyl-benzoyl)-1-(6-methyl-pyridazin-3-yl)-1,5-dihydro-pyrrol-2-one] | – | – | 276 to 277 °C | < 10000 | < 10000
13 | CCc1ccc(C(=O)C2=C(O)C(=O)N(c3ccc(C)nn3)C2c2ccc(OC(F)(F)F)cc2)cc1 (stereo not drawn) [Example 102, 4-(4-ethyl-benzoyl)-3-hydroxy-1-(6-methyl-pyridazin-3-yl)-5-(4-trifluoromethoxy-phenyl)-1,5-dihydro-pyrrol-2-one] | – | – | 263 to 267 °C | < 1000 | < 1000
14 | CCOc1ccc(C2C(C(=O)c3ccc(C(C)C)cc3)=C(O)C(=O)N2c2ccc(C)nn2)cc1 (stereo not drawn) [Example 104, 5-(4-ethoxy-phenyl)-3-hydroxy-4-(4-isopropyl-benzoyl)-1-(6-methyl-pyridazin-3-yl)-1,5-dihydro-pyrrol-2-one] | – | – | 279 °C | < 1000 | < 1000
15 | CCc1ccc(C2C(C(=O)c3ccc(C(C)C)cc3)=C(O)C(=O)N2c2ccc(C)nn2)cc1 (stereo not drawn) [Example 105, 5-(4-ethyl-phenyl)-3-hydroxy-4-(4-isopropyl-benzoyl)-1-(6-methyl-pyridazin-3-yl)-1,5-dihydro-pyrrol-2-one] | – | – | 282 to 284 °C | < 1000 | < 1000
16 | CC(C)c1ccc(C(=O)C2=C(O)C(=O)N(c3ccc(Sc4ccc([N+](=O)[O-])cc4)nn3)C2c2ccc(OC(F)(F)F)cc2)cc1 (stereo not drawn) [Example 119, 3-hydroxy-4-(4-isopropyl-benzoyl)-1-[6-(4-nitro-phenylsulfanyl)-pyridazin-3-yl]-5-(4-trifluoromethoxy-phenyl)-1,5-dihydro-pyrrol-2-one] | – | – | 194 to 209 °C | < 10000 | < 1000
17 | Cc1ccc(N2C(=O)C(O)=C(C(=O)c3ccc(C(C)C)cc3)C2c2ccc(OC3CC3)cc2)nn1 (stereo not drawn) [Example 120, 5-(4-cyclopropoxy-phenyl)-3-hydroxy-4-(4-isopropyl-benzoyl)-1-(6-methyl-pyridazin-3-yl)-1,5-dihydro-pyrrol-2-one] | – | – | 285 to 288 °C | < 1000 | < 1000
18 | Cc1ccc(N2C(=O)C(O)=C(C(=O)c3ccc(C(C)(C)C)cc3)C2c2ccc(OC(F)(F)F)cc2)nn1 (stereo not drawn) [Example 123, 4-(4-tert-butyl-benzoyl)-3-hydroxy-1-(6-methyl-pyridazin-3-yl)-5-(4-trifluoromethoxy-phenyl)-1,5-dihydro-pyrrol-2-one] | – | – | 262 to 265 °C | < 1000 | < 1000
19 | Cc1ccc(N2C(=O)C(O)=C(C(=O)c3ccc(C4CCCCC4)cc3)C2c2ccc(OC(F)(F)F)cc2)nn1 (stereo not drawn) [Example 125, 4-(4-cyclohexyl-benzoyl)-3-hydroxy-1-(6-methyl-pyridazin-3-yl)-5-(4-trifluoromethoxy-phenyl)-1,5-dihydro-pyrrol-2-one] | – | – | 283 to 286 °C | < 10000 | < 10000
